Measured values from patent publication EP2402358A2, “2',3'-Didehydro-3'-deoxy-4'-ethynylothymidine derivatives for treatment infections caused by human immunodeficiency virus (HIV) multidrug resistant strains, method of their synthesis and pharmaceutically acceptable forms of drugs” (priority 2010, dated 2012).

Tests used:
[1] = system: Wild type HIV-1 (NL4-3 cytotropic strain, CXCR4 - tropic); assay: Determination of antiviral activity (beta-galactosidase reporter indicator cell line, deClPhR cell system), wild type virus; format: cell-based; conditions: Human immunodeficiency virus 1, NL43
Excerpt: (§1) Determination of antiviral activity

[2] = system: HIV-1 virus strain Resistant 7005695; conditions: Resistance factor Rf=EC50 mutant / EC50 wt virus
Excerpt: as §1
(§2) Fully infectious virus HIV-1 was produced from cloned proviral DNA reference coding either for wild-type HIV-1 or from drug-resistant virus following transfection of proviral DNA into recipient mammalian cells. Subsequent to viral protein expression and particle formation, culture supernatant was harvested and used to infect an indicator cell line. This latter cell line expresses all necessary receptors and co-receptors for HIV infection as well as the bacterial gene LacZ coding for β-galactosidase under the control of the HIV-1 long terminal repeat. In this system, amount of β-galactosidase is directly proportional to the extent of viral replication. Activity of β-galactosidase is assayed in presence of a colorless substrate which upon enzymatic conversion yields a yellow product absorbing at 405 nm. Next, variation in colorimetric readout in presence of test compounds was translated in percent viral inhibition following normalization according to absorbance values of positive (presence of anti-HIV drug) and negative (untreated) control wells included in each 96 well-plate. […] Percent inhibition data in function of drug concentration were processed by a statistical curve fitting software yielding a modeled curve from which EC50 was extrapolated.
(§3) Resistance factor Rf=EC50 mutant / EC50 wt virus

[3] = system: HIV-1 virus strain Resistant QCR8; conditions: Resistance factor Rf=EC50 mutant / EC50 wt virus
Excerpt: as §1, §2, §3

[4] = Determination of cytotoxicity: Alamar Blue Cell Viability Assay; format: cell-based; conditions: deciphr cells
Excerpt: (§4) Determination of cytotoxicity: Alamar Blue™ Cell Viability Assay
(§5) The Alamar Blue™ Cell Viability Assay (Invitrogen) is a fluorimetric metod for determining the number of viable cells. The Alamar Blue Reagent contains the cell permeable non-fluorescent blue dye resazurin, which is converted to the pink and fluorescent dye resorufin in response to the action of reductases located in the cytosol, mitochondria and endoplasmic reticulum. Therefore, only living cells will convert resazurin into resorufin. Assays are performed by adding 20 µL of the Alamar Blue Reagent directly to culture wells followed by a 6-hour incubation at 37°C. The fluorescent signal is monitored using 545 nm excitation wavelength and 590 nm emission wavelength. The quantity of resofurin product as measured by fluorescence is directly proportional to the number of living cells in culture, what allows to calculate CC50 value.

deClPhR™ cells = assay: as above; format: cell-based; conditions: Cytotoxicity; PNL4-3; deClPhR™ cells
Excerpt: as §4, §5

Structure (SMILES)	EC50 [1] [nM]	Rf* [2]	Rf* [3]	CC50 ([4]; cytotoxicity in deClPhR™ cells) [nM]	CC50 (deClPhR™ cells) [nM]	CC50 ([4]; Cytotoxicity, PNL4-3, deClPhR™ cells) [nM]
C#C[C@@]1(COC(=O)CCCCCCCCCCCOC)C=C[C@H](n2cc(C)c(=O)[nH]c2=O)O1 [WA40, 1-(2,3-dideoxy-2,3-didehydro-4-ethynyl-5-O-(12-methoxydodecanoyl)-bb-D -ribofuranosy)-thymine]	48	17.4	2.3	> 200000	> 200000	
C#C[C@@]1(COC(=O)CCCCCCCCCCCCC)C=C[C@H](n2cc(C)c(=O)[nH]c2=O)O1 [WA37, 1-(2,3-dideoxy-2,3-didehydro-4-ethynyl-5-O-tetradodecanoyl-bb-D-ribofuranosyl)-thymine]	54	23.7	1.3	> 200000	> 200000	
C#C[C@@]1(COC(=O)CCCCCCCCCCCBr)C=C[C@H](n2cc(C)c(=O)[nH]c2=O)O1 [WA38, 1-(5-O-(12-bromododecanoyl)-2,3-dideoxy-2,3-didehydro-4-ethynyl-bb-D-ribofuranosyl)-thymine]	130	10.4	1	> 200000	> 200000	
C#C[C@@]1(COC(=O)CCCCCCCCCCCN=[N+]=[N-])C=C[C@H](n2cc(C)c(=O)[nH]c2=O)O1 [WA39, 1-(5-O-(12-azidododecanoyl)-2,3-dideoxy-2,3-didehydro-4-ethynyl-bb-D-ribofuranosyl)-thymine]	73	12.2	0.8	> 200000	> 200000	
C#C[C@@]1(CO)C=C[C@H](n2cc(C)c(=O)[nH]c2=O)O1 [4'-E-d4T (WA32), 2',3'-didehydro-3'-deoxy-4'-ethynylothymidine]	90	17.3	1.4			> 200000
C#C[C@@]1(COC(=O)CCCCCCCCCCSCC)C=C[C@H](n2cc(C)c(=O)[nH]c2=O)O1 [WA42]	43	16.1	2.3	> 200000	> 200000	
